Bounds are passed on as bounds.

This assay deals with β-catenin-TCF-mediated reporter transcription activity in Colo 205 cells. The assay can be described thus: Colo 205 reporter assay (TCF/LEF luciferase). It counts as cell-based. The note with it: Homo sapiens, COLO 205, 5 h, Colo 205 TCF/LEF luciferase reporter, five hours after addition of compound; read-out: TCF reporter Colo205 IC50. The essentials: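 Luciferase signal from a TCF/LEF-driven reporter, stably integrated in Colo 205 colon cancer cells, was measured 5 h after compound addition.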
A general note: Reporter assays use an easily measured gene product as a stand-in for the process of interest.

For the molecule `Cc1nc(N[C@H]2C[C@@H](COc3ccc(Cl)nc3)C2)nc2c1NC(=O)[C@H](C(C)C)N2C` [Compound 570, (S)-2-((cis-3-(((6-chloropyridin-3-yl)oxy)methyl)cyclobutyl)amino)-7-isopropyl-4,8-dimethyl-7,8-dihydropteridin-6(5H)-one], the IC50 is under 300 nM.
In the case of `Cc1ccc(OC[C@H]2C[C@@H](Nc3nc(C)c4c(n3)N(C)[C@@H](C(C)C)C(=O)N4)C2)cn1` [Compound 571, (S)-7-isopropyl-4,8-dimethyl-2-((cis-3-(((6-methylpyridin-3-yl)oxy)methyl)cyclobutyl)amino)-7,8-dihydropteridin-6(5H)-one], the IC50 was 300 to 1000 nM.
As for `Cc1nc(N[C@H]2C[C@@H](COc3ccc(C#N)nc3)C2)nc2c1NC(=O)[C@H](C(C)C)N2C` [Compound 572, 5-((cis-3-(((S)-7-isopropyl-4,8-dimethyl-6-oxo-5,6,7,8-tetrahydropteridin-2-yl)amino)cyclobutyl)methoxy)picolinonitrile], the figure is under 300 nM.
With `COc1ccc(OC[C@H]2C[C@@H](Nc3nc(C)c4c(n3)N(C)[C@@H](C(C)C)C(=O)N4)C2)cn1` [Compound 573, (S)-7-isopropyl-2-((cis-3-(((6-methoxypyridin-3-yl)oxy)methyl)cyclobutyl)amino)-4,8-dimethyl-7,8-dihydropteridin-6(5H)-one], the IC50 was under 300 nM.
Consider `Cc1nc(N[C@H]2C[C@@H](COc3ccc(F)nc3)C2)nc2c1NC(=O)[C@H](C(C)C)N2C` [Compound 574, (S)-2-((cis-3-(((6-fluoropyridin-3-yl)oxy)methyl)cyclobutyl)amino)-7-isopropyl-4,8-dimethyl-7,8-dihydropteridin-6(5H)-one], for which the IC50 is under 300 nM.
As for `Cc1nc(N[C@H]2C[C@@H](COc3cnn(C)c3C(F)(F)F)C2)nc2c1NC(=O)[C@H](C(C)C)N2C` [Compound 575, (S)-7-isopropyl-4,8-dimethyl-2-((cis-3-(((1-methyl-5-(trifluoromethyl)-1H-pyrazol-4-yl)oxy)methyl)cyclobutyl)amino)-7,8-dihydropteridin-6(5H)-one], the IC50 was under 300 nM.
On to `Cc1nc(N[C@H]2C[C@@H](Nc3ccc(OC(F)(F)F)cn3)C2)nc2c1NC(=O)[C@H](C(C)C)N2C` [Compound 576, (S)-7-isopropyl-4,8-dimethyl-2-((cis-3-((5-(trifluoromethoxy)pyridin-2-yl)amino)cyclobutyl)amino)-7,8-dihydropteridin-6(5H)-one], for which the IC50 was under 300 nM.
Take `Cc1nc(N[C@H]2C[C@@H](Nc3ccc(OC(F)(F)F)cn3)C2)nc2c1NC(=O)[C@H](C)N2C` [Compound 577, (S)-4,7,8-trimethyl-2-((cis-3-((5-(trifluoromethoxy)pyridin-2-yl)amino)cyclobutyl)amino)-7,8-dihydropteridin-6(5H)-one]: the IC50 is 300 to 1000 nM.
On to `Cc1nc(N[C@H]2C[C@H](Nc3cnc(C(F)(F)F)cn3)C2)nc2c1NC(=O)[C@H](C)N2C` [Compound 579, (S)-4,7,8-trimethyl-2-((trans-3-((5-(trifluoromethyl)pyrazin-2-yl)amino)cyclobutyl)amino)-7,8-dihydropteridin-6(5H)-one], for which the IC50 lay within 1000 to 5000 nM.
Consider `Cc1nc(N[C@H]2C[C@@H](COc3ccc4c(c3)OCO4)C2)nc2c1NC(=O)[C@H](C(C)C)N2C` [Compound 580, (S)-2-((cis-3-((benzo[d][1,3]dioxol-5-yloxy)methyl)cyclobutyl)amino)-7-isopropyl-4,8-dimethyl-7,8-dihydropteridin-6(5H)-one], for which the IC50 lay within 300 to 1000 nM.
The result for `Cc1nc(N[C@H]2C[C@@H](Cn3nc(C4CC4)cc3C(F)(F)F)C2)nc2c1NC(=O)[C@H](C(C)C)N2C` [Compound 581, (S)-2-((cis-3-((3-cyclopropyl-5-(trifluoromethyl)-1H-pyrazol-1-yl)methyl)cyclobutyl)amino)-7-isopropyl-4,8-dimethyl-7,8-dihydropteridin-6(5H)-one] reads under 300 nM; that for `Cc1cc(C(F)(F)F)n(C[C@H]2C[C@@H](Nc3nc(C)c4c(n3)N(C)[C@@H](C(C)C)C(=O)N4)C2)n1` [Compound 582, (S)-7-isopropyl-4,8-dimethyl-2-((cis-3-((3-methyl-5-(trifluoromethyl)-1H-pyrazol-1-yl)methyl)cyclobutyl)amino)-7,8-dihydropteridin-6(5H)-one], 300 to 1000 nM; that for `Cc1nc(N[C@H]2C[C@@H](Cn3ccc(Cl)n3)C2)nc2c1NC(=O)[C@H](C(C)C)N2C` [Compound 583, (S)-2-((cis-3-((3-chloro-1H-pyrazol-1-yl)methyl)cyclobutyl)amino)-7-isopropyl-4,8-dimethyl-7,8-dihydropteridin-6(5H)-one], under 300 nM.
`Cc1nc(N[C@H]2C[C@@H](Cn3nc(N)cc3C(F)(F)F)C2)nc2c1NC(=O)[C@H](C(C)C)N2C` [Compound 584, (S)-2-((cis-3-((3-amino-5-(trifluoromethyl)-1H-pyrazol-1-yl)methyl)cyclobutyl)amino)-7-isopropyl-4,8-dimethyl-7,8-dihydropteridin-6(5H)-one]: the IC50 was at least 5000 nM.
As for `Cc1nc(N[C@H]2C[C@@H](Cn3nc(C(F)(F)F)cc3N)C2)nc2c1NC(=O)[C@H](C(C)C)N2C` [Compound 585, (S)-2-((cis-3-((5-amino-3-(trifluoromethyl)-1H-pyrazol-1-yl)methyl)cyclobutyl)amino)-7-isopropyl-4,8-dimethyl-7,8-dihydropteridin-6(5H)-one], the figure is 300 to 1000 nM.
As for `Cc1nc(N[C@H]2C[C@@H](Nc3ccc(C(F)(F)F)nc3)C2)nc2c1NC(=O)[C@H](C(C)C)N2C` [Compound 586, (S)-7-isopropyl-4,8-dimethyl-2-((cis-3-((6-(trifluoromethyl)pyridin-3-yl)amino)cyclobutyl)amino)-7,8-dihydropteridin-6(5H)-one], the figure is under 300 nM.
The result for `Cc1nc(N[C@H]2C[C@H](Nc3ccc(C(F)(F)F)nc3)C2)nc2c1NC(=O)[C@H](C(C)C)N2C` [Compound 587, (S)-7-isopropyl-4,8-dimethyl-2-((trans-3-((6-(trifluoromethyl)pyridin-3-yl)amino)cyclobutyl)amino)-7,8-dihydropteridin-6(5H)-one] reads 300 to 1000 nM; that for `CO[C@H](C)[C@H]1C(=O)Nc2c(C)nc(N[C@H]3C[C@@H](Cn4nccc4C(F)(F)F)C3)nc2N1C` [Compound 588, (S)-7-((R)-1-methoxyethyl)-4,8-dimethyl-2-((cis-3-((5-(trifluoromethyl)-1H-pyrazol-1-yl)methyl)cyclobutyl)amino)-7,8-dihydropteridin-6(5H)-one], under 300 nM; that for `Cc1nc(NCc2cnn(Cc3ccc(C(F)(F)F)nc3)c2)nc2c1NC(=O)[C@H](COC(C)(C)C)N2C` [Compound 590, (S)-7-(tert-butoxymethyl)-4,8-dimethyl-2-(((1-((6-(trifluoromethyl)pyridin-3-yl)methyl)-1H-pyrazol-4-yl)methyl)amino)-7,8-dihydropteridin-6(5H)-one], 300 to 1000 nM.
For `Cc1nc(NC2CN(Cc3cc(F)c(F)c(F)c3)C2)nc2c1NC(=O)[C@H](C(C)C)N2C` [Compound 591, (S)-7-isopropyl-4,8-dimethyl-2-((1-(3,4,5-trifluorobenzyl)azetidin-3-yl)amino)-7,8-dihydropteridin-6(5H)-one], the IC50 is under 300 nM.
Take `Cc1nc(NC2CN(S(=O)(=O)c3ccc(F)cc3)C2)nc2c1NC(=O)[C@H](C(C)C)N2C` [Compound 592, (7S)-2-((1-((4-fluorophenyl)sulfonyl)azetidin-3-yl)amino)-7-isopropyl-4,8-dimethyl-7,8-dihydropteridin-6(5H)-one]: the IC50 is at least 5000 nM.
The result for `CC[C@H]1C(=O)Nc2c(C)nc(N[C@H]3C[C@@H](Cn4nccc4C(F)(F)F)C3)nc2N1C` [Compound 593, (S)-7-ethyl-4,8-dimethyl-2-((cis-3-((5-(trifluoromethyl)-1H-pyrazol-1-yl)methyl)cyclobutyl)amino)-7,8-dihydropteridin-6(5H)-one] reads under 300 nM; that for `Cc1nc(NC2CN(C(=O)Cc3ccc(C(F)(F)F)nc3)C2)nc2c1NC(=O)[C@H](C(C)C)N2C` [Compound 594, (S)-7-isopropyl-4,8-dimethyl-2-((1-(2-(6-(trifluoromethyl)pyridin-3-yl)acetyl)azetidin-3-yl)amino)-7,8-dihydropteridin-6(5H)-one], 1000 to 5000 nM.
As for `Cc1nc(NC2CN(C(=O)Cn3ccc(C(F)(F)F)n3)C2)nc2c1NC(=O)[C@H](C(C)C)N2C` [Compound 595, (S)-7-isopropyl-4,8-dimethyl-2-((1-(2-(3-(trifluoromethyl)-1H-pyrazol-1-yl)acetyl)azetidin-3-yl)amino)-7,8-dihydropteridin-6(5H)-one], the figure is 300 to 1000 nM; as for `Cc1nc(NC2CN(C(=O)c3cc(C(F)(F)F)nn3C)C2)nc2c1NC(=O)[C@H](C(C)C)N2C` [Compound 596, (S)-7-isopropyl-4,8-dimethyl-2-((1-(1-methyl-3-(trifluoromethyl)-1H-pyrazole-5-carbonyl)azetidin-3-yl)amino)-7,8-dihydropteridin-6(5H)-one], under 300 nM; as for `Cc1nc(NC2CN(C(=O)c3cc(C(F)(F)F)n(C)n3)C2)nc2c1NC(=O)[C@H](C(C)C)N2C` [Compound 597, (S)-7-isopropyl-4,8-dimethyl-2-((1-(1-methyl-5-(trifluoromethyl)-1H-pyrazole-3-carbonyl)azetidin-3-yl)amino)-7,8-dihydropteridin-6(5H)-one], 1000 to 5000 nM.
Take `Cc1nc(N[C@H]2C[C@@H](COc3ccc(OC(F)(F)F)nc3)C2)nc2c1NC(=O)[C@H](C(C)C)N2C` [Compound 598, (S)-7-isopropyl-4,8-dimethyl-2-((cis-3-(((6-(trifluoromethoxy)pyridin-3-yl)oxy)methyl)cyclobutyl)amino)-7,8-dihydropteridin-6(5H)-one]: the half-inhibitory concentration (IC50) is under 300 nM.
As for `CO[C@H](C)[C@H]1C(=O)Nc2c(C)nc(N[C@H]3C[C@H](Oc4cc(F)c(F)c(F)c4)C3)nc2N1C` [Compound 599, (S)-7-((R)—1-methoxyethyl)-4,8-dimethyl-2-((trans-3-(3,4,5-trifluorophenoxy)cyclobutyl)amino)-7,8-dihydropteridin-6(5H)-one], the figure is under 300 nM.

The term IC50 denotes the concentration that inhibits the measured activity by half.
